In US8956999B2, “Herbicides” (Syngenta Limited, priority 2007, dated 2015):

Key:
Format in all cases: in vivo
[1] = test system: Alopecurus myosuroides (ALOMY); test: Example A pre-emergence herbicidal test, glasshouse; settings: rate 250 g/ha, evaluated after 20 days, 100=total damage to plant, 0=no damage to plant
Method: (§1) Seeds of a variety of test species were sown in standard soil in pots. After cultivation for one day (pre-emergence) or after 10 days cultivation (post-emergence) under controlled conditions in a glasshouse, the plants were sprayed with an aqueous spray solution derived from the formulation of the technical active ingredient in 0.6 ml acetone and 45 ml formulation solution containing 10.6% Emulsogen EL (Registry number 61791-12-6), 42.2% N-methylpyrrolidone, 42.2% dipropylene glycol monomethyl ether (Registry number 34590-94-8) and 0.2% X-77 (Registry number 11097-66-8). The test plants were then grown in a greenhouse under optimum conditions until, 14 or 15 days later for post-emergence and 20 days for pre-emergence, the test was evaluated (100=total damage to plant; 0=no damage to plant). Test Plants: Alopecurus myosuroides (ALOMY), Avena fatua (AVEFA), Lolium perenne (LOLPE), Setaria faberi (SETFA), Digitaria sanguinalis (DIGSA), Echinochloa crus-galli (ECHCG)

[2] = test system: Echinochloa crus-galli (ECHCG); test: as above; settings: rate 250 g/ha, evaluated after 20 days, 100=total damage to plant, 0=no damage to plant
Method: as §1

[3] = test system: Digitaria sanguinalis (DIGSA); test: as above; settings: rate 250 g/ha, evaluated after 20 days, 100=total damage to plant, 0=no damage to plant
Method: as §1

Lolium perenne (LOLPE) [4] = test: as above; settings: rate 250 g/ha, evaluated after 20 days, 100=total damage to plant, 0=no damage to plant
Method: as §1

Avena fatua (AVEFA) [5] = test: as above; settings: rate 250 g/ha, evaluated after 20 days, 100=total damage to plant, 0=no damage to plant
Method: as §1

Setaria faberi (SETFA) [6] = test: as above; settings: rate 250 g/ha, evaluated after 20 days, 100=total damage to plant, 0=no damage to plant
Method: as §1

Solanum nigrum (SOLNI) [7] = test: Example B post-emergence herbicidal test, glasshouse; settings: 312 h, rate 1000 g/ha, evaluated after 13 days, read-out: Post-Emergence Activity SOLNI (100=total damage to plant; 0=no damage to plant)
Summary of the method: (§2)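 Damage rated 0–100 (100 = total) 13 days after spraying, plants kept at 24/16 °C, 14 h light, 65% humidity, watered twice daily. Treatment was 1 day post-sowing for pre-emergence, 8 days for post-emergence; spray from acetone/water (50:50) formulation with 0.5% Tween 20.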

[8] = test system: Amaranthus retoflexus (AMARE); test: as above; settings: Amaranthus retroflexus, 312 h, rate 1000 g/ha, evaluated after 13 days, read-out: Post-Emergence Activity AMARE (100=total damage to plant; 0=no damage to plant)
Summary of the method: as §2

[9] = test system: Alopecurus myosuroides (ALOMY); test: as above; settings: 312 h, rate 1000 g/ha, evaluated after 13 days, read-out: Post-Emergence Activity ALOMY (100=total damage to plant; 0=no damage to plant)
Summary of the method: as §2

[10] = test system: Echinochloa crus-galli (ECHCG); test: as above; settings: 312 h, rate 1000 g/ha, evaluated after 13 days, read-out: Post-Emergence Activity ECHCG (100=total damage to plant; 0=no damage to plant)
Summary of the method: as §2

Avena fatua (AVEFA) [11] = test: as above; settings: 312 h, rate 1000 g/ha, evaluated after 13 days, read-out: Post-Emergence Activity AVEFA (100=total damage to plant; 0=no damage to plant)
Summary of the method: as §2

Setaria faberi (SETFA) [12] = test: as above; settings: 312 h, rate 1000 g/ha, evaluated after 13 days, read-out: Post-Emergence Activity SETFA (100=total damage to plant; 0=no damage to plant)
Summary of the method: as §2

[13] = test system: Alopecurus myosuroides (ALOMY); test: Example A post-emergence herbicidal test, glasshouse; settings: rate 125 g/ha, evaluated 14 or 15 days later, 100=total damage to plant, 0=no damage to plant
Method: as §1

[14] = test system: Echinochloa crus-galli (ECHCG); test: as above; settings: rate 125 g/ha, evaluated 14 or 15 days later, 100=total damage to plant, 0=no damage to plant
Method: as §1

[15] = test system: Digitaria sanguinalis (DIGSA); test: as above; settings: rate 125 g/ha, evaluated 14 or 15 days later, 100=total damage to plant, 0=no damage to plant
Method: as §1

Lolium perenne (LOLPE) [16] = test: as above; settings: rate 125 g/ha, evaluated 14 or 15 days later, 100=total damage to plant, 0=no damage to plant
Method: as §1

Avena fatua (AVEFA) [17] = test: as above; settings: rate 125 g/ha, evaluated 14 or 15 days later, 100=total damage to plant, 0=no damage to plant
Method: as §1

Setaria faberi (SETFA) [18] = test: as above; settings: rate 125 g/ha, evaluated 14 or 15 days later, 100=total damage to plant, 0=no damage to plant
Method: as §1

Solanum nigrum (SOLNI) [19] = test: Example B pre-emergence herbicidal test, glasshouse; settings: rate 1000 g/ha, evaluated after 13 days, 100=total damage to plant, 0=no damage to plant
Summary of the method: as §2

[20] = test system: Amaranthus retoflexus (AMARE); test: as above; settings: Amaranthus retroflexus, 312 h, rate 1000 g/ha, evaluated after 13 days, 100=total damage to plant, 0=no damage to plant
Summary of the method: as §2

[21] = test system: Alopecurus myosuroides (ALOMY); test: as above; settings: 312 h, rate 1000 g/ha, evaluated after 13 days, 100=total damage to plant, 0=no damage to plant
Summary of the method: as §2

[22] = test system: Echinochloa crus-galli (ECHCG); test: as above; settings: rate 1000 g/ha, evaluated after 13 days, 100=total damage to plant, 0=no damage to plant
Summary of the method: as §2

Avena fatua (AVEFA) [23] = test: as above; settings: 312 h, rate 1000 g/ha, evaluated after 13 days, 100=total damage to plant, 0=no damage to plant
Summary of the method: as §2

Setaria faberi (SETFA) [24] = test: as above; settings: rate 1000 g/ha, evaluated after 13 days, 100=total damage to plant, 0=no damage to plant
Summary of the method: as §2

Row | SMILES | Pre-Emergence Activity ALOMY [1] | Pre-Emergence Activity ECHCG [2] | Pre-Emergence Activity DIGSA [3] | Pre-Emergence Activity LOLPE (Lolium perenne (LOLPE) [4]) | Pre-Emergence Activity AVEFA (Avena fatua (AVEFA) [5]) | Pre-Emergence Activity SETFA (Setaria faberi (SETFA) [6]) | pest or weed control at 1000 g/ha (Solanum nigrum (SOLNI) [7]) | pest or weed control at 1000 g/ha [8] | pest or weed control at 1000 g/ha [9] | pest or weed control at 1000 g/ha [10] | pest or weed control at 1000 g/ha (Avena fatua (AVEFA) [11]) | pest or weed control at 1000 g/ha (Setaria faberi (SETFA) [12]) | Post-Emergence Activity ALOMY [13] | Post-Emergence Activity ECHCG [14] | Post-Emergence Activity DIGSA [15] | Post-Emergence Activity LOLPE (Lolium perenne (LOLPE) [16]) | Post-Emergence Activity AVEFA (Avena fatua (AVEFA) [17]) | Post-Emergence Activity SETFA (Setaria faberi (SETFA) [18]) | further results
1 | CCc1sc(-c2ccc(Cl)cc2)nc1C1C(=O)C(C)(C)C(=O)C(C)(C)C1=O [Compound T6] | 50 | 50 | 70 | 80 | 20 | 60 | 0% | 0% | 90% | 90% | 90% | 100% | 70 | 70 | 70 | 30 | 60 | 70 | 
2 | CCc1sc(-c2ccc(Cl)cc2)nc1C1C(=O)C(C)(C)OC(C)(C)C1=O [Compound T11, 4-[2-(4-chlorophenyl)-5-ethylthiazol-4-yl]-2,2,6,6-tetramethylpyran-3,5-dione] | 100 | 100 | 100 | 100 | 100 | 100 |  |  |  |  |  |  | 90 | 100 | 100 | 60 | 80 | 100 | 
3 | Cc1sc(-c2ccc(Cl)cc2)cc1C1C(=O)C(C)(C)OC(C)(C)C1=O [Compound T12] | 30 | 40 | 20 | 0 | 0 | 0 |  |  |  |  |  |  | 80 | 100 | 90 | 70 | 70 | 80 | 
4 | Cc1sc(-c2ccc(Cl)cc2)nc1C1C(=O)C(C)(C)OC(C)(C)C1=O [Compound T13] | 100 | 100 | 100 | 100 | 50 | 100 |  |  |  |  |  |  | 90 | 100 | 100 | 70 | 80 | 100 | 
5 | Cc1[se]c(-c2ccc(Cl)cc2)nc1C1C(=O)C(C)(C)OC(C)(C)C1=O [Compound T16, 5-[2-(4-chlorophenyl)-5-methylselenazol-4-yl]-2,2,6,6-tetramethylpyran-3,5-dione] | 90 | 60 | 100 | 100 | 50 | 0 |  |  |  |  |  |  | 70 | 100 | 90 | 60 | 70 | 90 | 
6 | COC(=O)c1ccc(-c2cc(C3C(=O)C(C)(C)OC(C)(C)C3=O)c(C)s2)cc1 [Compound T20] |  |  |  |  |  |  | 0% | 0% | 0% | 0% | 0% | 10% |  |  |  |  |  |  | Pre-Emergence Activity SOLNI (Solanum nigrum (SOLNI) [19]): 70; pest or weed control at 1000 g/ha [20]: 80%; pest or weed control at 1000 g/ha [21]: 30%; Pre-Emergence Activity ECHCG [22]: 0; pest or weed control at 1000 g/ha (Avena fatua (AVEFA) [23]): 0%; Pre-Emergence Activity SETFA (Setaria faberi (SETFA) [24]): 0
